From patent US7183315B2, “Silver salts of sucrose-octasulphate” (Interalia S.R.L., priority 2001, dated 2007)

Key:
Candida albicans = settings: preservative in cosmetic preparations; cited from earlier work
Staphylococcus aureus = settings: preservative in cosmetic preparations; cited from earlier work
Pseudomonas aeruginosa = settings: preservative in cosmetic preparations; cited from earlier work
[1] = tested on: Staphylococcus Aureus ATCC 6538; assay: Bacterial growth inhibition test in culture broth; type: cell-based; parameters: key to inhibition of S. aureus ATCC 6538 growth / inhibition of S. aureus ATCC 6538: − growth; + inhibition; settings: for inhibition of S. aureus ATCC 6538: Table 2
Experimental: Serial dilutions of known titre of the two products SOS-Ag and Katoxyn, the latter containing Ag in the form of metallic silver (silver […]® collodial chemical), have been placed directly in contact with the test microorganism (Staphylococcus Aureus ATCC 6538) for incubation in culture broth under agitation. The effect of the substances on cellular growth has been measured by evaluating the absence of turbidity in the culture medium. The anti bacterial activity has been verified by the seeding of 1 ml of culture broth in an […] medium, with observations at 7, 14, 21, 28 days from the beginning of the experiment (tables 1 and 2).

[2] = tested on: Staphylococcus Aureus ATCC 6538; assay: Bacterial growth inhibition test by diffusion in agar (seeded by inclusion, 8 mm wells); type: cell-based
Text: The inhibition of bacterial growth has been, in this case, evaluated on a confluent bacterial culture of Staphylococcus aureus ATCC 6538 obtained on solid medium, according to the seeding method for inclusion. Serial dilutions of the test products, of known Ag titre, have been deposited inside 8 mm diameter wells formed in the medium in direct contact with the bacteria Staphylococcus aureus ATCC 6538. The antibacterial activity of the products under test have been evaluated, after appropriate incubations, by measuring the halos of inhibition around each well (tables 3 and 4).

[3] = Solubility of the product; type: physicochemical; settings: product of example 1
S. aureus ATCC 6538 [4] = assay: Diffusion method in agar, cellulose disks of 13 mm; type: cell-based, Staphylococcus aureus; settings: 72 hours at 37° C.
Experimental: (§1) The characterisation of the antibacterial activity has been carried out using the method of diffusion in agar, placing the substances in contact with confluent bacterial cultures on solid medium. The experiments have been carried out according to two distinct methods: 1) wetting sterile cellulose disks, 13 mm in diameter with 100 μl of solutions at serial dilutions of the product of known Ag titre. […] 100 μl of the solutions containing the products at known concentrations of Ag are placed on the base of the wells, and the bacteriocidal activity is observed after 72 hours of incubation at 37° C. against a blank constituted of just the solvent used for the solubilisation of the products.

[5] = Stability in solid state and aqueous solution; type: physicochemical; settings: obtained according to example 3
S. aureus ATCC 6538 [6] = assay: Diffusion method in agar, seeded by inclusion, 8 mm wells, 72 h; type: cell-based, Staphylococcus aureus; settings: 72 hours at 37° C.
Experimental: as §1

## [Ag] [silver]
Candida albicans
  concentration of silver showing activity: 10^−5 M
Staphylococcus aureus
  concentration of silver showing activity: 10^−5 M
Pseudomonas aeruginosa
  concentration of silver showing activity: 10^−5 M

## CC1(C)S[C@@H]2[C@H](NC(=O)[C@H](N)c3ccccc3)C(=O)N2[C@H]1C(=O)O [ampicillin, reference compound]
[1]; positive control, Table 1, 7 days
  inhibition of S. aureus ATCC 6538 growth: +
[1]; positive control, Table 1, 14 days
  inhibition of S. aureus ATCC 6538 growth: +
[1]; positive control, Table 1, 21 days
  inhibition of S. aureus ATCC 6538 growth: +
[1]; positive control, Table 1, 28 days
  inhibition of S. aureus ATCC 6538 growth: +
[1]; positive control, 7 days
  inhibition of S. aureus ATCC 6538: +
[1]; positive control, 14 days
  inhibition of S. aureus ATCC 6538: +
[1]; positive control, 21 days
  inhibition of S. aureus ATCC 6538: +
[1]; positive control, 28 days
  inhibition of S. aureus ATCC 6538: +
[2]; Concentration 5 I.U./ml, positive control
  Halo of inhibition: 11 mm
[2]; Concentration 10 I.U./ml, positive control
  Halo of inhibition: 20 mm
[2]; Concentration 20 I.U./ml, positive control
  Halo of inhibition: 39 mm

## silver salts of sucrose-octasulphate [SOS-Ag]
[3]; organic solvents
  Solubility in organic solvents: particularly insoluable
[3]; water
  Solubility in water: very soluble
S. aureus ATCC 6538 [4]; Ag titre 10^−2 M
  Halo of inhibition: 15.3 mm
S. aureus ATCC 6538 [4]; Ag titre 10^−3 M
  Halo of inhibition: 12 mm
S. aureus ATCC 6538 [4]; Ag titre 10^−4 M
  Halo of inhibition: 0 mm
S. aureus ATCC 6538 [4]; Ag titre 10^−5 M
  Halo of inhibition: 0 mm
[5]; aqueous solution
  stability in aqueous solution: good stability
[5]; solid state
  stability in the solid state: good stability
S. aureus ATCC 6538 [6]; Ag titre 10^−2 M
  Halo of inhibition: 14.5 mm
S. aureus ATCC 6538 [6]; Ag titre 10^−3 M
  Halo of inhibition: 14 mm
S. aureus ATCC 6538 [6]; Ag titre 10^−4 M
  Halo of inhibition: 0 mm
S. aureus ATCC 6538 [6]; Ag titre 10^−5 M
  Halo of inhibition: 0 mm
[1]; Ag titre 1 × 10^−2 M, 7 days
  inhibition of S. aureus ATCC 6538 growth: +
[1]; Ag titre 1 × 10^−2 M, 14 days
  inhibition of S. aureus ATCC 6538 growth: +
[1]; Ag titre 1 × 10^−2 M, 21 days
  inhibition of S. aureus ATCC 6538 growth: +
[1]; Ag titre 1 × 10^−2 M, 28 days
  inhibition of S. aureus ATCC 6538 growth: +
[1]; Ag titre 1 × 10^−3 M, 7 days
  inhibition of S. aureus ATCC 6538 growth: +
[1]; Ag titre 1 × 10^−3 M, 14 days
  inhibition of S. aureus ATCC 6538 growth: +
[1]; Ag titre 1 × 10^−3 M, 21 days
  inhibition of S. aureus ATCC 6538 growth: +
[1]; Ag titre 1 × 10^−3 M, 28 days
  inhibition of S. aureus ATCC 6538 growth: +
[1]; Ag titre 1 × 10^−4 M, 7 days
  inhibition of S. aureus ATCC 6538 growth: −
[1]; Ag titre 1 × 10^−4 M, 14 days
  inhibition of S. aureus ATCC 6538 growth: −
[1]; Ag titre 1 × 10^−4 M, 21 days
  inhibition of S. aureus ATCC 6538 growth: −
[1]; Ag titre 1 × 10^−4 M, 28 days
  inhibition of S. aureus ATCC 6538 growth: −
[1]; Ag titre 1 × 10^−5 M, 7 days
  inhibition of S. aureus ATCC 6538 growth: −
[1]; Ag titre 1 × 10^−5 M, 14 days
  inhibition of S. aureus ATCC 6538 growth: −
[1]; Ag titre 1 × 10^−5 M, 21 days
  inhibition of S. aureus ATCC 6538 growth: −
[1]; Ag titre 1 × 10^−5 M, 28 days
  inhibition of S. aureus ATCC 6538 growth: −
[1]; Ag titre 5 × 10^−4 M, 7 days
  inhibition of S. aureus ATCC 6538 growth: −
[1]; Ag titre 5 × 10^−4 M, 14 days
  inhibition of S. aureus ATCC 6538 growth: −
[1]; Ag titre 5 × 10^−4 M, 21 days
  inhibition of S. aureus ATCC 6538 growth: −
[1]; Ag titre 5 × 10^−4 M, 28 days
  inhibition of S. aureus ATCC 6538 growth: −
[1]; S. aureus ATCC 6538, summary of tables 1-4 (culture broth and agar diffusion)
  concentration of Ag at which the product has been effective / active: 1 mM
[2]; Ag titre 1 × 10^−3 M, 8 mm wells
  Halo of inhibition: 13 mm
[2]; Ag titre 1 × 10^−4 M, 8 mm wells
  Halo of inhibition: 0 mm
[2]; Ag titre 5 × 10^−4 M, 8 mm wells
  Halo of inhibition: 0 mm
